Test results as given in patent publication US10450326B2, “Thiazolopyrimidinone compounds and preparation methods and use thereof” (PEKING UNIVERSITY, priority 2015, dated 2019).

Target: T1, α7 nAChR (Homo sapiens, UniProt P36544)
T1 construct: expressed in transfected cells; host or cells: Xenopus oocytes (cRNA injection)
Assay: α7 nAChR positive allosteric modulator activity assay, voltage clamp in Xenopus oocytes with 100 μM ACh
Type: cell-based
Conditions: for activity at 10 µM: at 10 μM compound, current induced by 100 μM ACh, Xenopus oocytes expressing α7 nAChR, read-out: Max Mod (%, at 10 μM); for EC50: potentiation of current induced by 100 μM ACh, Hill equation fit
Procedure: The experimental process was as follows:
(1) Xenopus oocytes were injected with cRNA encoding α7 nAChR in order to express α7 nAChR on the cell membrane successfully;
(2) 100 μM ACh alone was added, and the α7 nAChR characteristic current caused by it was recorded as a control;
(5) The oocytes were incubated for 1 min with 10 μM compound, then 10 µM compound and 100 μM ACh were added simultaneously and the current induced by ACh was recorded at this time;
(6) The differences between the two currents in terms of peak intensity and duration were compared, with the ratio of peak intensity of the two currents representing the adjustment effect (Enhance Rate), in order to determine whether the compound had PAM activity, if the activity was good, then the subsequent test was carried out;
(7) Concentration gradient was set and the effects of compounds at different concentrations on the α7 nAChR characteristic current induced by 100 μM ACh were evaluated. Several determinations were carried out at the same concentration, and the results were presented in the form of “mean±standard deviation”;
(8) The EC50 (median maximum effect concentration) values and Max mod (the current amplitude caused by the maximal degree of adjustable endogenous agonist acetylcholine) values of the compounds and other activity data were obtained by Hill equation Inormalized=Emax/(1+(EC50/C)nH).
The amplitude of the peak current is only normalized by the amplitude produced by 100 μM ACh and different concentrations of LD486. […] It can be seen from FIG. 3 that the Hill equation is used to fit the dose-response curve and calculate the kinetic parameters.

T1 sequence (P36544 23-502): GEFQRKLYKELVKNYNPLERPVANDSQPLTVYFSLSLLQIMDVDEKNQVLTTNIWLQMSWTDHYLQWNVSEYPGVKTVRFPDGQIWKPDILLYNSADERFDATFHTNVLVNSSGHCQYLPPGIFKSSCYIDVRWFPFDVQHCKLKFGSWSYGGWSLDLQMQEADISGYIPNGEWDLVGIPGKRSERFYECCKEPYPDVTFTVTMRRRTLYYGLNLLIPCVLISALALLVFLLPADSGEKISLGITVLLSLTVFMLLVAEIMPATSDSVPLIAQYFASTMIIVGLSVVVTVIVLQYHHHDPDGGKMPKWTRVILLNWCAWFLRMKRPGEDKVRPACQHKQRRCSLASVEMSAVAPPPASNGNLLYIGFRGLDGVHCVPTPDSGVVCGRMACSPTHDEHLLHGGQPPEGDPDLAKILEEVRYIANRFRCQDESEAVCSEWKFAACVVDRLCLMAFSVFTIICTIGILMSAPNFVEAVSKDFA

SMILES	activity at 10 µM	EC50
Cc1ccc(Nc2nc3ncn(-c4c(C)cccc4Br)c(=O)c3s2)cc1F [JWX-A-C0106, 6-(2-Bromo-6-methylphenyl)-2-((3-fluoro-4-methylphenyl)amino)thiazolo[4,5-d]pyrimidin-7(6H)-one]	200%	10 µM
Cc1ccc(Nc2nc3ncn(-c4c(C)cccc4F)c(=O)c3s2)cc1F [JWX-A-C0111, 6-(2-fluoro-6-methylphenyl)-2-((3-fluoro-4-methylphenyl)amino)thiazolo[4,5-d]pyrimidin-7(6H)-one]	110%	–
Cc1ccc(-n2cnc3nc(Nc4ccc(C)c(F)c4)sc3c2=O)c(Cl)c1 [JWX-A-C0229, 6-(2-Chloro-4-methylphenyl)-2-((3-fluoro-4-methylphenyl)amino)thiazolo[4,5-d]pyrimidin-7(6H)-one]	110%	–
Cc1ccc(Nc2nc3ncn(-c4ccccc4Cl)c(=O)c3s2)cc1F [JWX-A-C0831, 6-(2-Chlorophenyl)-2-((3-fluoro-4-methylphenyl)amino)thiazolo[4,5-d]pyrimidin-7(6H)-one]	380%	10 µM
Cc1cccc(Cl)c1-n1cnc2nc(Nc3ccc(OC(F)(F)F)cc3)sc2c1=O [JWX-A-C0901, 6-(2-Chloro-6-methylphenyl)-2-((4-(trifluoromethoxy)phenyl)amino)thiazolo[4,5-d]pyrimidin-7(6H)-one]	200%	10 µM
Cc1cccc(Cl)c1-n1cnc2nc(Nc3cccc(OC(F)(F)F)c3)sc2c1=O [JWX-A-C0907, 6-(2-Chloro-6-methylphenyl)-2-((3-(trifluoromethoxy)phenyl)amino)thiazolo[4,5-d]pyrimidin-7(6H)-one]	150%	10 µM
Cc1cccc(Cl)c1-n1cnc2nc(Nc3ccc(F)c(F)c3)sc2c1=O [JWX-A-C0915, 6-(2-Chloro-6-methylphenyl)-2-((3,4-difluorophenyl)amino)thiazolo[4,5-d]pyrimidin-7(6H)-one]	300%	10 µM
Cc1cc(C)cc(Nc2nc3ncn(-c4c(C)cccc4Cl)c(=O)c3s2)c1 [JWX-A-C1017, 6-(2-Chloro-6-methylphenyl)-2-((3,5-dimethylphenyl)amino)thiazolo[4,5-d]pyrimidin-7(6H)-one]	–	5.02 µM
Cc1cccc(Cl)c1-n1cnc2nc(NC(=O)c3ccc(Cl)cc3)sc2c1=O [JWX-A-C1020, N-(6-(2-Chloro-6-methylphenyl)-7-oxo-6,7-dihydrothiazolo[4,5-d]pyrimidin-2-yl)-4-chlorobenzamide]	350%	10 µM
Cc1ccc(Nc2nc3ncn(-c4ccccc4C)c(=O)c3s2)cc1F [JWX-A-C1026, 6-(o-tolyl)-2-((3-fluoro-4-methylphenyl)amino)-thiazolo[4,5-d]pyrimidin-7(6H)-one]	300%	10 µM
Cc1cccc(Cl)c1-n1cnc2nc(NC(=O)c3ccc(Br)cc3)sc2c1=O [JWX-A-C1122, N-(6-(2-chloro-6-methylphenyl)-7-oxo-6,7-dihydrothiazolo[4,5-d]pyrimidin-2-yl)-4-bromobenzamide]	1000%	9.8 µM
Cc1cccc(Cl)c1-n1cnc2nc(NC(=O)c3ccc(C(F)(F)F)cc3)sc2c1=O [JWX-A-C1128, N-(6-(2-Chloro-6-methylphenyl)-7-oxo-6,7-dihydrothiazolo[4,5-d]pyrimidin-2-yl)-4-(trifluoromethyl)benzamide]	200%	10 µM
Cc1cccc(Cl)c1-n1cnc2nc(NC(=O)c3ccc(OC(F)(F)F)cc3)sc2c1=O [JWX-A-C1205, N-(6-(2-Chloro-6-methylphenyl)-7-oxo-6,7-dihydrothiazolo[4,5-d]pyrimidin-2-yl)-4-(trifluoromethoxy)benzamide]	980%	10.8 µM
Cc1cccc(Cl)c1-n1cnc2nc(-c3ccccc3)sc2c1=O [JWX-C1200, 6-(2-Chloro-6-methylphenyl)-2-phenylthiazolo[4,5-d]pyrimidin-7(6H)-one]	110%	–
Cc1cc(C)c(-n2cnc3nc(Nc4ccccc4)sc3c2=O)c(C)c1 [LD252, 6-Mesityl-2-(phenylamino)thiazolo[4,5-d]pyrimidin-7(6H)-one]	110%	–
Cc1cc(C)c(-n2cnc3nc(Nc4ccccn4)sc3c2=O)c(C)c1 [LD286, 6-Mesityl-2-(pyridin-2-ylamino)thiazolo[4,5-d]pyrimidin-7(6H)-one]	110%	–
Cc1cc(C)c(-n2cnc3nc(Nc4ccncc4)sc3c2=O)c(C)c1 [LD293, 6-Mesityl-2-(pyridin-4-ylamino)thiazolo[4,5-d]pyrimidin-7(6H)-one]	110%	–
CSc1nc2ncn(-c3c(Cl)cccc3Cl)c(=O)c2s1 [LD493, 6-(2,6-Dichlorophenyl)-2-(methylthio) thiazolo[4,5-d]pyrimidin-7(6H)-one]	110%	–
CSc1nc2nnn(-c3c(Cl)cccc3Cl)c(=O)c2s1 [LD496, 3-(2,6-Dichlorophenyl)-6-(methylthio) thiazolo[4,5-d][1,2,3]triazin-4(3H)-one]	110%	–
Cc1cccc(Cl)c1-n1cnc2nc(SCc3ccccc3F)sc2c1=O [LYH150309-2F, 6-(2-Chloro-6-methylphenyl)-2-((2-fluorobenzyl)thio)thiazolo[4,5-d]pyrimidin-7(6H)-one]	620%	4.18 µM
Cc1cccc(Cl)c1-n1cnc2nc(SCc3cccc(F)c3)sc2c1=O [LYH150310-3F, 6-(2-Chloro-6-methylphenyl)-2-((3-fluorobenzyl)thio)thiazolo[4,5-d]pyrimidin-7(6H)-one]	500%	10 µM
Cc1cccc(Cl)c1-n1cnc2nc(SCc3ccc(F)cc3)sc2c1=O [LYH150312-4F, 6-(2-Chloro-6-methylphenyl)-2-((4-fluorobenzyl)thio)thiazolo[4,5-d]pyrimidin-7(6H)-one]	670%	2.87 µM
Cc1ccc(CSc2nc3ncn(-c4c(C)cccc4Cl)c(=O)c3s2)cc1 [LYH150318-4Me, 6-(2-Chloro-6-methylphenyl)-2-((4-methylbenzyl)thio)thiazolo[4,5-d]pyrimidin-7(6H)-one]	300%	10 µM
Cc1cccc(CSc2nc3ncn(-c4c(C)cccc4Cl)c(=O)c3s2)c1 [LYH150324-3Me, 6-(2-Chloro-6-methylphenyl)-2-((3-methylbenzyl)thio)thiazolo[4,5-d]pyrimidin-7(6H)-one]	230%	10 µM
Cc1ccccc1CSc1nc2ncn(-c3c(C)cccc3Cl)c(=O)c2s1 [LYH150325-2Me, 6-(2-Chloro-6-methylphenyl)-2-((2-methylbenzyl)thio)thiazolo[4,5-d]pyrimidin-7(6H)-one]	370%	10 µM
COc1ccc(CSc2nc3ncn(-c4c(C)cccc4Cl)c(=O)c3s2)cc1 [LYH150326-4OCH3, 6-(2-Chloro-6-methylphenyl)-2-((4-methoxybenzyl)thio)thiazolo[4,5-d]pyrimidin-7(6H)-one]	300%	10 µM
Cc1cccc(Cl)c1-n1cnc2nc(SCc3ccc(C(F)(F)F)cc3)sc2c1=O [LYH150409-4CF3, 6-(2-Chloro-6-methylphenyl)-2-((4-(trifluoromethyl)benzyl)thio)thiazolo[4,5-d]pyrimidin-7(6H)-one]	140%	10 µM
